Measurements published in the Deep4Chem optical property database.
Each block holds one compound with its values, some of them ahead of it.

Assay: photoluminescence quantum yield (fraction); solvent given as SMILES

SMILES: COc1ccc(C2=CC(c3ccccc3)=[N+]3C2=Nc2c(-c4ccc(OC)cc4)cc(-c4ccccc4)n2[B-]3(F)F)cc1
photoluminescence quantum yield (in Cc1ccccc1): 0.24
photoluminescence quantum yield (in ClC(Cl)Cl): 0.23

SMILES: N#Cc1ccccc1N1c2ccccc2C(c2ccccc2)(c2ccccc2)c2ccccc21
photoluminescence quantum yield (in Cc1ccccc1): 0.33

SMILES: Cc1ccc(-c2c3ccc([nH]3)c3nc(c(-c4ccc([N+](=O)[O-])cc4)c4ccc([nH]4)c4ccc([nH]4)c(-c4ccc(C)cc4)c4ccc2o4)C=C3)cc1
photoluminescence quantum yield (in C1CCOC1): 0.018
photoluminescence quantum yield (in Cc1ccccc1): 0.083
photoluminescence quantum yield (in c1ccccc1): 0.098

SMILES: COc1cc(OC)cc(C2=C3C(C)=C(I)C(/C=C/c4c[nH]c5ccc([N+](=O)[O-])cc45)=[N+]3[B-](F)(F)n3c(/C=C/c4c[nH]c5ccc([N+](=O)[O-])cc45)c(I)c(C)c32)c1
photoluminescence quantum yield (in C1CCOC1): 0.03
photoluminescence quantum yield (in CS(C)=O): 0.02
photoluminescence quantum yield (in ClCCl): 0.02

SMILES: CCC1=C(C)C2=C(c3ccc(-c4c5ccccc5c(-c5ccccc5)c5ccccc45)cc3)c3c(C)c(CC)c(C)n3[B-](F)(F)[N+]2=C1C
photoluminescence quantum yield (in CC#N): 0.696
photoluminescence quantum yield (in CCCCCC): 0.756
photoluminescence quantum yield (in CCO): 0.841
photoluminescence quantum yield (in CN(C)C=O): 0.232
photoluminescence quantum yield (in Cc1ccccc1): 0.781
photoluminescence quantum yield (in ClCCl): 0.744

SMILES: COc1cc(/C=C/c2ccccn2)c(OC)cc1C=O
photoluminescence quantum yield (in C1CCOC1): 0.19
photoluminescence quantum yield (in CC#N): 0.24
photoluminescence quantum yield (in CN(C)C=O): 0.21
photoluminescence quantum yield (in Cc1ccccc1): 0.16
photoluminescence quantum yield (in ClCCl): 0.36

SMILES: CCOC(=O)COc1ccc(/C=C/C2=[N+]3C(=Cc4c5ccccc5c(-c5[nH]c(C)cc5C)n4[B-]3(F)F)C(C)=C2)cc1
photoluminescence quantum yield (in ClCCl): 0.75

SMILES: CC(C)(C)c1ccc2c(c1)c1cc(C(C)(C)C)ccc1n2-c1ccc2oc3nc4oc5ccc(C(F)(F)F)cc5c4cc3c2c1
photoluminescence quantum yield (in C1CCCCC1): 0.113
photoluminescence quantum yield (in C1CCOC1): 0.073
photoluminescence quantum yield (in CC#N): 0.032
photoluminescence quantum yield (in CS(C)=O): 0.124
photoluminescence quantum yield (in Cc1ccccc1): 0.094
photoluminescence quantum yield (in ClC(Cl)Cl): 0.058

SMILES: COc1cccc(C2=C(c3ccc(C(C)(C)C)cc3)C(c3ccc(C(C)(C)C)cc3)=[N+]3C2=C(c2ccccc2)c2c(-c4cccc(OC)c4)c(-c4ccc(C(C)(C)C)cc4)c(-c4ccc(C(C)(C)C)cc4)n2[B-]3(F)F)c1
photoluminescence quantum yield (in C1CCCCC1): 0.44
photoluminescence quantum yield (in C1CCOC1): 0.45
photoluminescence quantum yield (in CC#N): 0.38
photoluminescence quantum yield (in Cc1ccccc1): 0.54
photoluminescence quantum yield (in ClCCl): 0.58

SMILES: COc1cc2c(cc1-c1ccsc1)Cc1c3c(c4c(c1-2)-c1cc(OC)c(-c2ccsc2)cc1C4)C(=O)N(CCC(C)C)C3=O
photoluminescence quantum yield (in C1CCOC1): 0.55

SMILES: CCCCCCCCn1c(=O)c2cc3cc4cc5c(=O)n(CCCCCCCC)c(=O)c5cc4c(C#Cc4ccc(N(c5ccccc5)c5ccccc5)cc4)c3cc2c1=O
photoluminescence quantum yield (in ClC(Cl)Cl): 0.39

SMILES: CC1=C(C(C)(C)C)C(C)=[N+]2C1=C(C)c1c(C)c(C(C)(C)C)c(C)n1[B-]2(F)F
photoluminescence quantum yield (in C1CCCCC1): 0.32
photoluminescence quantum yield (in C1CCOC1): 0.37
photoluminescence quantum yield (in C1COCCO1): 0.4
photoluminescence quantum yield (in CC#N): 0.44
photoluminescence quantum yield (in CC(C)=O): 0.44
photoluminescence quantum yield (in CC(C)CC(C)(C)C): 0.4
photoluminescence quantum yield (in CCC(C)C): 0.4
photoluminescence quantum yield (in CCCC(C)=O): 0.46
photoluminescence quantum yield (in CCCCCC): 0.43
photoluminescence quantum yield (in CCCCCCCCO): 0.41
photoluminescence quantum yield (in CCCCCCO): 0.42
photoluminescence quantum yield (in CCCCO): 0.39
photoluminescence quantum yield (in CCCCOC(C)=O): 0.43
photoluminescence quantum yield (in CCCO): 0.39
photoluminescence quantum yield (in CCO): 0.43
photoluminescence quantum yield (in CCOC(C)=O): 0.44
photoluminescence quantum yield (in CCOCC): 0.43
photoluminescence quantum yield (in CN(C)C=O): 0.35
photoluminescence quantum yield (in CNC=O): 0.47
photoluminescence quantum yield (in CO): 0.48
photoluminescence quantum yield (in COC(C)=O): 0.48
photoluminescence quantum yield (in OCC(F)(F)F): 0.49

SMILES: CC1=CC(C)=[N+]2C1=C(C1=C(C)C3=C(C)c4c(C)cc(C)n4[B-](F)(F)[N+]3=C1C)c1c(C)cc(C)n1[B-]2(F)F
photoluminescence quantum yield (in ClC(Cl)Cl): 0.03

SMILES: c1ccc(-c2nc3c4ccccc4c4ccccc4c3n2-c2cccc(-c3nc4c5ccccc5c5ccccc5c4n3-c3ccccc3)c2)cc1
photoluminescence quantum yield (in Cc1ccccc1): 0.75

SMILES: C1=C/C2=C(\c3ccccc3)c3c[nH]c(c3)/C(c3ccccc3)=C3/C=CC(=N3)/C(c3ccccc3)=c3/cc/c([nH]3)=C(\c3ccccc3)C1=N2
photoluminescence quantum yield (in CC(=O)N(C)C): 0.046

SMILES: Cc1cc(-c2ccc(-c3n(C)c4ccccc4[n+]3C)cc2)ccc1-c1ccc(-c2n(C)c3ccccc3[n+]2C)cc1
photoluminescence quantum yield (in O): 0.65

SMILES: COC(=O)C12N=N[C@](C(=O)OC)(C3C4CCC(C4)C31)[C@@]1(C)C[C@@H]21 (stereo partly specified)
photoluminescence quantum yield (in CC#N): 0.043

SMILES: Cc1nc(-c2ccc(N3c4ccccc4C(c4ccccc4)(c4ccccc4)c4ccccc43)cc2)cc(-c2ccc(N3c4ccccc4C(c4ccccc4)(c4ccccc4)c4ccccc43)cc2)n1
photoluminescence quantum yield (in Cc1ccccc1): 0.54
photoluminescence quantum yield (in O=P(c1ccccc1)(c1ccccc1)c1ccc2oc3ccc(P(=O)(c4ccccc4)c4ccccc4)cc3c2c1): 0.92

SMILES: COc1ccc(/C=C/C=C/C=C/c2ccc([N+](=O)[O-])cc2)cc1
photoluminescence quantum yield (in C1CCOC1): 0.44
photoluminescence quantum yield (in C1COCCO1): 0.57
photoluminescence quantum yield (in CC1CCCCC1): 0.21
photoluminescence quantum yield (in CC#N): 0.013
photoluminescence quantum yield (in CO): 0.002
photoluminescence quantum yield (in CS(C)=O): 0.03
photoluminescence quantum yield (in Cc1ccccc1): 0.63
photoluminescence quantum yield (in ClC(Cl)Cl): 0.14
photoluminescence quantum yield (in ClCCl): 0.074

SMILES: CC1(C)[C@@H]2[C@@H]1[C@]1(c3ccccc3)N=NC2(c2ccccc2)C2C3C=CC(C3)C21 (stereo partly specified)
photoluminescence quantum yield (in CC#N): 0.08

SMILES: COC(=O)C[C@H](Cc1c[nH]c2ccccc12)NC(=O)[C@H](CC(=O)N[C@@H](CC1=CCc2ccccc21)C(=O)OC)NC(=O)[C@H](Cc1c[nH]c2ccccc12)NC(=O)OC(C)(C)C
photoluminescence quantum yield (in CC#N): 0.26
photoluminescence quantum yield (in CCOC(C)=O): 0.22
photoluminescence quantum yield (in CO): 0.1

SMILES: C(=C\c1ccc(-n2c3ccccc3c3ccccc32)cc1)/c1ccc(-c2ccc(/C=C/c3ccc(-n4c5ccccc5c5ccccc54)cc3)cc2)cc1
photoluminescence quantum yield (in Cc1ccccc1): 0.89
photoluminescence quantum yield (in c1ccc2c(c1)c1ccccc1n2-c1ccc(-c2ccc(-n3c4ccccc4c4ccccc43)cc2)cc1): 0.98

SMILES: Cc1c(COC(=O)c2ccccc2Br)n2c(OCC(=O)c3ccccc3Br)c(C)c(=O)n2c1=O
photoluminescence quantum yield (in CCO): 0.841

SMILES: CCCCCCCCCCC1(CCCCCCCCCC)c2cc(-c3nc4ccccc4s3)ccc2-c2ccc(N3C(=O)c4ccc5c6ccc7c8c(ccc(c9ccc(c4c59)C3=O)c86)C(=O)N(c3ccc4c(c3)C(CCCCCCCCCC)(CCCCCCCCCC)c3cc(-c5nc6ccccc6s5)ccc3-4)C7=O)cc21
photoluminescence quantum yield (in Cc1ccccc1): 0.23
photoluminescence quantum yield (in ClCCl): 0.0025

SMILES: C(=C\c1ccc(N(c2ccc(/C=C/c3ccc(-c4cc(-c5ccccc5)nc(-c5ccccc5)c4)cc3)cc2)c2ccc(/C=C/c3ccc(-c4cc(-c5ccccc5)nc(-c5ccccc5)c4)cc3)cc2)cc1)/c1ccc(-c2cc(-c3ccccc3)nc(-c3ccccc3)c2)cc1
photoluminescence quantum yield (in C1CCOC1): 0.08
photoluminescence quantum yield (in Cc1ccccc1): 0.14

SMILES: CC1=C(C#Cc2ccc([Si](c3ccccc3)(c3ccccc3)c3ccccc3)cc2)C(C)=[N+]2C1=C(c1ccccc1)c1c(C)c(C#Cc3ccc([Si](c4ccccc4)(c4ccccc4)c4ccccc4)cc3)c(C)n1[B-]2(F)F
photoluminescence quantum yield (in ClCCl): 0.15

SMILES: CCCCCCn1c2ccccc2c2cc3c4cc5c6ccccc6n(CCCCCC)c5cc4c4cc5c(C)cc(=O)oc5cc4c3cc21
photoluminescence quantum yield (in ClC(Cl)Cl): 0.12

SMILES: CCC1=C(C)C2=Cc3cccn3[B-](F)(F)[N+]2=C1C
photoluminescence quantum yield (in C1CCCCC1): 0.7
photoluminescence quantum yield (in CC(C)=O): 0.65
photoluminescence quantum yield (in CCO): 0.69
photoluminescence quantum yield (in CCOC(C)=O): 0.69
photoluminescence quantum yield (in CO): 0.6
photoluminescence quantum yield (in OCC(F)(F)F): 0.49

SMILES: CC1(C)c2ccccc2N(c2ccc3c(c2)C(C)(C)c2cc(N4c5ccccc5C(C)(C)c5ccccc54)ccc2S3(=O)=O)c2ccccc21
photoluminescence quantum yield (in O=P(c1ccccc1)(c1ccccc1)c1ccccc1Oc1ccccc1P(=O)(c1ccccc1)c1ccccc1): 0.8

SMILES: c1ccc(CSc2c3ccc(=[N+]4CCCCC4)cc-3oc3cc(N4CCCCC4)ccc23)cc1
photoluminescence quantum yield (in ClCCl): 0.79

The next lines start with the values.

photoluminescence quantum yield (in C1CCCCC1): 0.45
photoluminescence quantum yield (in CCOC(C)=O): 0.11
SMILES: CC1=[N+]2C(=C(Oc3cc(C)c4c(c3)CC[C@@](C)(CCC[C@H](C)CCC[C@H](C)CCCC(C)C)O4)c3ccc(C)n3[B-]2(F)F)C=C1c1cc2n(c1)[B-](F)(F)[N+]1=CC=CC1=C2c1c(C)cc(C)cc1C

photoluminescence quantum yield (in CCO): 0.22
photoluminescence quantum yield (in ClCCl): 0.78
SMILES: Clc1ncc(-c2c3ccccc3c(-c3cnc(Cl)nc3)c3ccccc23)cn1

photoluminescence quantum yield (in ClCCl): 0.02
SMILES: CC(C)[Si](C#Cc1ccc(C#C[Si](C(C)C)(C(C)C)C(C)C)c2nc3ccccc3nc12)(C(C)C)C(C)C

photoluminescence quantum yield (in C1CCCCC1): 0.07
photoluminescence quantum yield (in CC#N): 0.07
SMILES: C[Si](C)(c1c2ccccc2cc2ccccc12)[Si](C)(C)c1c2ccccc2cc2ccccc12

photoluminescence quantum yield (in ClCCl): 0.72
SMILES: COc1ccc2c(c1)CCC1=C(C#Cc3ccc(Cl)cc3)O[B-](F)(F)[O+]=C12

photoluminescence quantum yield (in CC#N): 0.0066
SMILES: CN(C)C1=Nc2cccc3cccc1c23

photoluminescence quantum yield (in CCO): 0.0001
SMILES: CC1(C)CC(/C=C/c2ccc(-n3cccn3)cc2)=CC(=C(C#N)C#N)C1

photoluminescence quantum yield (in C1CCCCC1): 0.65
SMILES: COc1ccc([Si](C)(C)C)c2ccccc12

photoluminescence quantum yield (in ClCCl): 0.004
SMILES: COc1cccc2c1oc(=O)c1c(=O)oc3cc(O)ccc3c12

photoluminescence quantum yield (in CCCO): 0.53
SMILES: CCOC(=O)c1ccc2c(c1)n(C)c1c3ccc(C(=O)OCC)cc3n(C)c21

photoluminescence quantum yield (in CN(C)C=O): 0.275
SMILES: Cc1nc2cccc(-c3nc4ccc(Cl)cc4o3)c2c(=O)[nH]1

photoluminescence quantum yield (in CC#N): 0.71
SMILES: COc1ccc2cc(/C=C/c3ccccc3)c(=O)oc2c1

photoluminescence quantum yield (in ClCCl): 0.106
SMILES: CCn1c2c(-c3ccc(-c4cccs4)s3)cc(C(C)(C)C)cc2c2cc(C(C)(C)C)cc(-c3ccc(-c4cccs4)s3)c21

photoluminescence quantum yield (in C1CCCCC1): 0.926
photoluminescence quantum yield (in CCOC(C)=O): 0.885
photoluminescence quantum yield (in CN(C)C=O): 0.296
photoluminescence quantum yield (in CO): 0.222
photoluminescence quantum yield (in ClCCl): 0.916
SMILES: CCN(CC)c1ccc2c(c1)oc(=O)c1cnc3c(cnn3-c3ccccc3)c12

photoluminescence quantum yield (in ClC(Cl)Cl): 0.12
SMILES: CC(C)(C)c1ccc(C2=c3sc(-c4ccc(C(C)(C)C)cc4)cc3=[N+]3C2=Nc2c(-c4ccc(C(C)(C)C)cc4)c4sc(-c5ccc(C(C)(C)C)cc5)cc4n2[B-]3(F)F)cc1

photoluminescence quantum yield (in C1CCCCC1): 0.22
SMILES: CCn1c2ccccc2c2ccc(-c3ccc(OC)cc3)cc21
